Test results reported in patent publication US11471428B2, “Method and pharmaceutical composition for treating depression” (ZHEJIANG UNIVERSITY, priority 2017, dated 2022).
Structures can show the parent of a compound that is named as a salt.

Assays:
cLH rats [1] = test: Forced swim test (FST) after local bilateral infusion in LHb of cLH rats; type: in vivo, rat; conditions: 1 ul each side
cLH rats [2] = test: Sucrose preference test (SPT) after local bilateral infusion in LHb of cLH rats; type: in vivo, rat; conditions: 1 ul each side
[3] = not told; cited from earlier work
LHb neurons [4] = test: Whole cell patch recording of spontaneous activity of LHb neurons, cLH rat model; type: cell-based; conditions: LHb slices of cLH rats
LHb neurons [5] = test: Whole cell patch recording of spontaneous activity of LHb neurons, CRS mouse model; type: cell-based; conditions: LHb slices of CRS mice
LHb neurons [6] = test: In vivo multi-tetrode recording in the LHb of CRS mice; design: species or system mouse
silent LHb neurons = test: NMDA perfusion-induced bursting in originally silent LHb neurons; type: cell-based
C56BL/6 mice = test: Mouse forced swim test after i.p. administration; type: in vivo; conditions: 1 hour after administration
[7] = system: spontaneously bursting LHb neurons; test: Spontaneous bursts of LHb neurons in brain slices, bath application; type: cell-based
NMDARs = type: cell-based; conditions: NBQX, picrotoxin, 0 Mg2+
[8] = system: lateral habenular neurons; test: Hyperpolarization-triggered rebound bursts in LHb brain slices; type: cell-based; conditions: AP5 100 μM
NMDAR = conditions: cited from earlier work
AMPA receptor (AMPAR) = conditions: cited from earlier work
[9] = mibefradil 10 nmol, 1 hr after infusion
[10] = ketamine 25 ug, 1 hr after infusion

Structure (SMILES) | blood-brain barrier permeability [3] | further results
COCC(=O)O[C@]1(CCN(C)CCCc2nc3ccccc3[nH]2)CCc2cc(F)ccc2[C@@H]1C(C)C [mibefradil] | has no blood-brain barrier permeability | immobility in the FST (cLH rats [1]; [9]): quickly rescued the depressive-like behaviors; anhedonia in the SPT (cLH rats [2]; [9]): quickly rescued the depressive-like behaviors
C/C=C1\[C@H]2C=C(C)C[C@]1(N)c1ccc(=O)[nH]c1C2 [Huperzine A] | capable of crossing a blood-brain barrier or show at least certain level of blood-brain barrier permeability | –
CN1C(=O)CC(C)(c2ccccc2)C1=O (centres unmarked) [methsuximide] | shows at least some level of blood-brain barrier permeability | –
CNC1(c2ccccc2Cl)CCCCC1=O (centres unmarked) [ketamine] | capable of crossing a blood-brain barrier or show at least certain level of blood-brain barrier permeability | immobility time in the FST (cLH rats [1]; [10]): sufficient to quickly rescue the depressive-like behaviors; sustained antidepressant effect in FST (cLH rats [1]; ketamine 25 ug, 14 d): sustained antidepressant effects for 14 days; anhedonia, sucrose preference test (cLH rats [2]; [10]): sufficient to quickly rescue the depressive-like behaviors; sustained antidepressant effect in SPT (cLH rats [2]; ketamine 25 ug, 14 d): sustained antidepressant effects for 14 days; increase of bursting neurons in cLH rat model (LHb neurons [4]): reversed by ketamine; increase of bursting neurons in CRS mouse model (LHb neurons [5]): reversed by ketamine; LHb bursting activity in vivo (LHb neurons [6]; 10 mg/kg, i.p., 1 h prior to recording, CRS mice): significantly suppressed; cumulative frequency distributions of ISI (LHb neurons [6]; 10 mg/kg, i.p., CRS mice): significantly shifted toward control level; LHb network synchronization (STA and SFC, theta band) (LHb neurons [6]; 1 hr after systemic injection, 10 mg/kg, i.p., CRS mice): reversed to control level; 50% percentile of ISI (LHb neurons [6]; CRS mice treated with ketamine (control 143 ms, CRS 33 ms)): 121 ms; NMDA-induced bursting activity (silent LHb neurons; additional bath application of 100 μM ketamine): blocked; effect in the forced swim test (C56BL/6 mice; ketamine 2.5 mg/kg i.p.): ineffective
CCN(c1ccccc1)c1cc(=NC)n(C)c(C)n1.Cl [ZD7288] | – | effect on spontaneous bursts ([7]; ZD7288 50 μM): significant but much smaller effect on bursts than mibefradil
O=C1NC(=O)C(c2ccccc2)(c2ccccc2)N1 [phenytoin] | shows at least some level of blood-brain barrier permeability | –
NC(CCCCCP(=O)(O)O)C(=O)O (centres unmarked) [AP7] | observed but at a low level | –
CC12CC3CC(C)(C1)CC(N)(C3)C2 [memantine hydrochloride] | capable of crossing a blood-brain barrier or show at least certain level of blood-brain barrier permeability | –
CC(C)(C)CCN1C[C@@H]2C(CNC(=O)c3cc(Cl)cc(Cl)c3)[C@@H]2C1 (some centres unmarked) [ML218] | shows at least some level of blood-brain barrier permeability | –
COc1ccc2c(c1)[C@]13CCCC[C@@H]1[C@H](C2)N(C)CC3 [Dextromethorphan] | capable of crossing a blood-brain barrier or show at least certain level of blood-brain barrier permeability | –
CCc1cccc(N(C)C(N)=Nc2cccc3ccccc23)c1 [Aptiganel] | capable of crossing a blood-brain barrier or show at least certain level of blood-brain barrier permeability | –
CCCC(CCC)C(=O)[O-].[Na+] [sodium valproate] | shows at least some level of blood-brain barrier permeability | –
CCCCCCC(C)(C)c1cc(O)c2c(c1)OC(C)(C)[C@H]1CC=C(CO)C[C@H]21 [HU-211] | capable of crossing a blood-brain barrier or show at least certain level of blood-brain barrier permeability | –
N[C@@H](Cc1ccccn1)c1ccccc1 [AZD6765] | capable of crossing a blood-brain barrier or show at least certain level of blood-brain barrier permeability | –
NC(CCCP(=O)(O)O)C(=O)O (centres unmarked) [AP5] | do not have blood-brain barrier permeability | immobile time in the FST (cLH rats [1]; AP5 40 nmol, 0.5 h): efficiently reduced the immobile time; hedonic behaviors in the SPT (cLH rats [2]; AP5 40 nmol, 0.5 h): increased hedonic behaviors; isolated NMDAR-currents (NMDAR-EPSCs) (NMDARs): abolished; spontaneous burst-firing ([7]; AP5 100 μM bath application): stopped burst-firing; probability of neuron hyperpolarization-induced burst [8]: 0.12; IC50 (NMDAR): 30 µM
NC12CC3CC(CC(C3)C1)C2 [Amantadine] | capable of crossing a blood-brain barrier or show at least certain level of blood-brain barrier permeability | –
CC1(C)OC(=O)NC1=O [dimethadione] | shows at least some level of blood-brain barrier permeability | –
O=C(O)[C@@H]1C[C@H](CP(=O)(O)O)CCN1 (racemic) [Selfotel] | capable of crossing a blood-brain barrier or show at least certain level of blood-brain barrier permeability | –
CCC1(C)CC(=O)NC1=O (centres unmarked) [ethosuximide] | shows at least some level of blood-brain barrier permeability | effect in the forced swim test (C56BL/6 mice; ethosuximide 100 mg/kg i.p.): ineffective
NCC1(CC(=O)O)CCCCC1 [Gabapentin] | do not have blood-brain barrier permeability | –
O=C(O)C1CN(C/C=C/P(=O)(O)O)CCN1 (centres unmarked) [CPPene] | capable of crossing a blood-brain barrier or show at least certain level of blood-brain barrier permeability | –
CN[C@H](CC(=O)O)C(=O)O [NMDA, N-methyl-D-aspartate] | – | originally silent LHb neurons induced to strong bursting activity (silent LHb neurons; NMDA 20 μM, NBQX, picrotoxin, 0 Mg2+): 10 out of 13
CNCC[C@@H](Oc1ccccc1C)c1ccccc1 [Atomoxetine] | capable of crossing a blood-brain barrier or show at least certain level of blood-brain barrier permeability | –
NS(=O)(=O)c1cccc2c1c([N+](=O)[O-])cc1nc(O)c(O)nc12 [NBQX] | – | spontaneous bursts ([7]; NBQX 10 μM): reduced bursts, but to a much smaller extent than NMDAR blockade; IC50 (AMPA receptor (AMPAR)): 0.15 µM
NS(=O)(=O)Cc1noc2ccccc12 [zonisamide] | shows at least some level of blood-brain barrier permeability | –
O=C(O)c1cc(=O)c2ccccc2[nH]1 [kynurenic acid] | capable of crossing a blood-brain barrier or show at least certain level of blood-brain barrier permeability | –
CN1C(=O)OC(C)(C)C1=O [trimethadione] | shows at least some level of blood-brain barrier permeability | –
CN[C@]12CCCC[C@H]1Cc1ccccc12 [PD-137889] | capable of crossing a blood-brain barrier or show at least certain level of blood-brain barrier permeability | –
